Results from patent US20160194358A1, “LINEAR PEPTIDE ANTIBIOTCS” (priority 2013, published 2016).
Converted amounts (≈) assume the structure as drawn. Where two headings read alike, the source gives them in different places. Where a SMILES comes first, the peptide text is derived from it. [ ]: non-standard residue; d: D form. The star is where a group is joined. boroAla((+)-pinanediol) = C[C@H](N*)B1O[C@@H]2C[C@@H]3C[C@@H](C3(C)C)[C@]2(C)O1; Benzenesulfonyl(4-Ph) = O=S(=O)(c1ccc(-c2ccccc2)cc1)*; Benzoyl(4-(4-Cl-Ph)) = O=C(c1ccc(-c2ccc(Cl)cc2)cc1)*; Ethanesulfonyl(2-NHDecyl) = CCCCCCCCCCNCCS(=O)(=O)*; Propanoyl(3-decylamino) = CCCCCCCCCCNCCC(=O)*; X21 = O=S(=O)(c1ccc(-c2ccc(Cl)cc2)nc1)*; X31 = O=S(=O)(c1ccc(-c2ccccc2)cn1)*; X36 = CC(C)C#CC#Cc1ccc(C(=O)*)cc1; Myristoyl = CCCCCCCCCCCCCC(=O)*; NDecylGly = CCCCCCCCCCNCC(=O)O; X28 = C[C@H](N*)C(=O)c1ncccn1; X19 = CCCCCCCCCCN(C)CCC(=O)*; X22 = C[C@H](N*)C(=O)C(=O)O; Decanoyl = CCCCCCCCCC(=O)*; X7 = C[C@H](N*)C(=O)C1CO1; boroAla = C[C@H](N*)B(O)O; Dab = NCC[C@H](N)C(=O)O; Dap = NC[C@H](N)C(=O)O

How the values were obtained:
[1] = system: methicillin resistant Staphylococcus aureus (MRSA) strain USA300 (NRS384)
Procedure: (§1) In vitro antimicrobial activity of each compound was determined by measuring minimal inhibitor concentrations (MICs) using the broth micro-dilution technique as approved by the Clinical and Laboratory Standards Institute (CLSI). Antibacterial activity was measure against two strains of bacteria: 1) methicillin resistant Staphylococcus aureus (MRSA) strain USA300 (NRS384) and 2) Escherichia coli strain MC4100 IMP-4213, which harbors an LptD mutation. Bacterial inocula were prepared by scraping cells into 1 mL of testing media (cation adjusted Mueller Hinton Broth supplemented with 0.002% v/v Tween-80) and diluting to a final OD600nm of 0.01.
(§2) Test compounds were prepared in DMSO at a concentration of 10 mg/ml. These compound stocks were diluted into testing media at a concentration of 64 μg/ml and 9 serial 1:2 dilutions were made in the same media, in 96-well U bottom microtiter dishes. Bacterial inocula were added to the two fold serial dilutions of test compounds to a final density of OD OD600nm of 0.0005 and incubated stationarily at 35° C. for 22 hours, after which the plates were examined visually.

[2] = system: Escherichia coli strain MC4100 IMP-4213, which harbors an LptD mutation; conditions: E. coli MC4100 IMP-4213; 35° C., 22 hours
Procedure: as §1, §2

[3] = MRSA USA300 (NRS384), 35° C., 22 hours

SMILES | MIC (μg/mL) S. aureus [1, 3] [µg/mL] | MIC (μg/mL) E. coli [2] [µg/mL] | MIC (μg/mL) S. aureus ([1]; USA300, 22 h) [µg/mL]
CCCCCCCCCCCCCC(=O)N[C@@H](CCN)C(=O)N[C@H](C(=O)N[C@@H](C)C(=O)N[C@@H](CCCCN)C(=O)N[C@@H](C)B1O[C@@H]2C[C@@H]3C[C@@H](C3(C)C)[C@]2(C)O1)[C@@H](C)O [Compound 272] (Myristoyl-[Dab]TAK-{boroAla((+)-pinanediol)}) | 0.13 (≈ 0.156 µM) | 0.13 (≈ 0.156 µM) | 
CCCCCCCCCCNCCNCC(=O)N[C@H](C(=O)N[C@@H](C)C(=O)N[C@@H](CCCCN)C(=O)N[C@@H](C)B1O[C@@H]2C[C@@H]3C[C@@H](C3(C)C)[C@]2(C)O1)[C@@H](C)O [Compound 244] | 0.87 (≈ 1.14 µM) | 64 (≈ 83.8 µM) | 
CCCCCCCCCCNCCC(=O)N[C@@H](CCCCN)C(=O)N[C@@H](C)C(=O)N[C@@H](CCCCN)C(=O)N[C@@H](C)B(O)O [Compound 269] | 0.35 (≈ 0.558 µM) | 11 (≈ 17.5 µM) | 
C[C@H](NC(=O)[C@H](CCCCN)NC(=O)[C@H](C)NC(=O)[C@@H](NC(=O)[C@H](CCCCN)NS(=O)(=O)c1ccc(-c2ccccc2)cn1)[C@@H](C)O)B1O[C@@H]2C[C@@H]3C[C@@H](C3(C)C)[C@]2(C)O1 [Compound 231] (X31-KTAK-{boroAla((+)-pinanediol)}) | 32 (≈ 36.8 µM) | >64 | 
CC(C)C#CC#Cc1ccc(C(=O)N[C@@H](CCN)C(=O)N[C@H](C(=O)N[C@@H](C)C(=O)N[C@@H](CCCCN)C(=O)N[C@@H](C)B2O[C@@H]3C[C@@H]4C[C@@H](C4(C)C)[C@]3(C)O2)[C@@H](C)O)cc1 [Compound 263] (X36-[Dab]TAK-{boroAla((+)-pinanediol)}) | 0.71 (≈ 0.868 µM) | 0.25 (≈ 0.306 µM) | 
CCCCCCCCCCNCC(=O)N[C@H](C(=O)N[C@@H](C)C(=O)N[C@@H](CCCCN)C(=O)N[C@@H](C)B1O[C@@H]2C[C@@H]3C[C@@H](C3(C)C)[C@]2(C)O1)[C@@H](C)O [Compound 229] (H-[NDecylGly]TAK-{boroAla((+)-pinanediol)}) | 1.3 (≈ 1.8 µM) | 64 (≈ 88.8 µM) | 
CCCCCCCCCCNCCN[C@@H](CC(N)=O)C(=O)N[C@H](C(=O)N[C@@H](C)C(=O)N[C@@H](CCCCN)C(=O)N[C@@H](C)B(O)O)[C@@H](C)O [Compound 243] |  | >64 | 1.4 (≈ 2.04 µM)
CCCCc1ccc(-c2ccc(C(N[C@@H](CCCCN)C(=O)N[C@H](C(=O)N[C@@H](C)C(=O)N[C@@H](CC(C)C)C(=O)N[C@@H](C)B3O[C@@H]4C[C@@H]5C[C@@H](C5(C)C)[C@]4(C)O3)[C@@H](C)O)C(F)(F)F)cc2)cc1 (stereo partly drawn) [Compound 277] | 1.4 (≈ 1.51 µM) | 4 (≈ 4.32 µM) | 
C[C@H](NC(=O)[C@H](CCCCN)NC(=O)[C@H](C)NC(=O)[C@@H](NC(=O)[C@H](CCN)NS(=O)(=O)c1ccc(-c2ccc(Cl)cc2)nc1)[C@@H](C)O)B(O)O [Compound 235] (X21-[Dab]TAK-boroAla) | 16 (≈ 21.6 µM) | 32 (≈ 43.2 µM) | 
C[C@H](NC(=O)[C@@H](NC(=O)[C@H](CN)NC(=O)c1ccc(-c2ccc(Cl)cc2)cc1)[C@@H](C)O)C(=O)N[C@@H](CCCCN)C(=O)N[C@@H](C)C(=O)c1ncccn1 [Compound 267] ({Benzoyl(4-(4-Cl-Ph))}-[Dap]TAK-X28) | 11 (≈ 14.6 µM) | 32 (≈ 42.5 µM) | 
C[C@H](NC(=O)[C@@H](NC(=O)[C@H](CCN)NC(=O)c1ccc(-c2ccc(Cl)cc2)cc1)[C@@H](C)O)C(=O)N[C@@H](CCCCN)C(=O)N[C@@H](C)C(=O)C(=O)O [Compound 247] ({Benzoyl(4-(4-Cl-Ph))}-[Dab]TAK-X22) | 3.2 (≈ 4.37 µM) | >64 | 
CCCCCCCCCCN(C)CCC(=O)N[C@@H](CCCCN)C(=O)N[C@H](C(=O)N[C@@H](C)C(=O)N[C@@H](CCCCN)C(=O)N[C@@H](C)B1O[C@@H]2C[C@@H]3C[C@@H](C3(C)C)[C@]2(C)O1)[C@@H](C)O [Compound 240] (X19-KTAK-{boroAla((+)-pinanediol)}) | 1.4 (≈ 1.6 µM) | 32 (≈ 36.5 µM) | 
CCCCCCCCCCNCCC(=O)N[C@@H](CCCCN)C(=O)N[C@H](C(=O)N[C@@H](C)C(=O)N[C@@H](CCCCN)C(=O)N[C@@H](C)C(=O)C(=O)O)[C@@H](C)O [Compound 249] ({Propanoyl(3-decylamino)}-KTAK-X22) |  | >64 | 0.71 (≈ 0.938 µM)
CCCCCCCCCCNCCC(=O)N[C@@H](CCCCN)C(=O)N[C@H](C(=O)N[C@@H](C)C(=O)N[C@@H](CN)C(=O)N[C@@H](C)C(=O)C(=O)O)[C@@H](C)O [Compound 257] ({Propanoyl(3-decylamino)}-KTA[Dap]-X22) |  | >64 | 11 (≈ 15.4 µM)
CCCCCCCCCCNCCC(=O)N[C@@H](CCCCN)C(=O)N[C@@H](CC(=O)O)C(=O)N[C@@H](C)C(=O)N[C@@H](CCCCN)C(=O)N[C@@H](C)B1O[C@@H]2C[C@@H]3C[C@@H](C3(C)C)[C@]2(C)O1 [Compound 224] ({Propanoyl(3-decylamino)}-KDAK-{boroAla((+)-pinanediol)}) | 11 (≈ 12.5 µM) | >64 | 
CCCCCCCCCCNCCS(=O)(=O)N[C@@H](CCN)C(=O)N[C@H](C(=O)N[C@@H](C)C(=O)N[C@@H](CCCCN)C(=O)N[C@@H](C)B1O[C@@H]2C[C@@H]3C[C@@H](C3(C)C)[C@]2(C)O1)[C@@H](C)O [Compound 239] ({Ethanesulfonyl(2-NHDecyl)}-[Dab]TAK-{boroAla((+)-pinanediol)}) | 0.25 (≈ 0.287 µM) | 4 (≈ 4.59 µM) | 
CCCCCCCCCCNCCS(=O)(=O)N[C@@H](CCCCN)C(=O)N[C@H](C(=O)N[C@@H](C)C(=O)N[C@@H](CCCCN)C(=O)N[C@@H](C)B(O)O)[C@@H](C)O [Compound 238] ({Ethanesulfonyl(2-NHDecyl)}-KTAK-boroAla) |  | 32 (≈ 41.8 µM) | 0.18 (≈ 0.235 µM)
C[C@H](NC(=O)[C@@H](NC(=O)[C@H](CCN)NC(=O)c1ccc(-c2ccc(Cl)cc2)cc1)[C@@H](C)O)C(=O)N[C@@H](CCCCN)C(=O)N[C@@H](C)C(=O)C1CO1 (stereo partly drawn) [Compound 216] ({Benzoyl(4-(4-Cl-Ph))}-[Dab]TAK-X7) |  | 16 (≈ 21.9 µM) | 1 (≈ 1.37 µM)
CCCCc1ccc(-c2ccc(CN(CCCN)C(=O)N[C@H](C(=O)N[C@@H](C)C(=O)N[C@@H](CCCCN)C(=O)N[C@@H](C)B3OC4C[C@@H]5C[C@@H](C5(C)C)[C@]4(C)O3)[C@@H](C)O)cc2)cc1 (stereo partly drawn) [Compound 132] | 5.7 (≈ 6.74 µM) | 32 (≈ 37.8 µM) | 
C[C@H](NC(=O)[C@H](CCCCN)NC(=O)[C@H](C)NC(=O)[C@@H](NC(=O)C(NC(=O)c1ccc(-c2ccc(Cl)cc2)cc1)C1CNC1)[C@@H](C)O)B1O[C@@H]2C[C@@H]3C[C@@H](C3(C)C)[C@]2(C)O1 (stereo partly drawn) [Compound 282] | 8 (≈ 9.41 µM) | 16 (≈ 18.8 µM) | 
CCCCCCCCCC(=O)NCC(=O)N[C@H](C(=O)N[C@@H](C)C(=O)N[C@@H](CCCCN)C(=O)N[C@@H](C)B1O[C@@H]2C[C@@H]3C[C@@H](C3(C)C)[C@]2(C)O1)[C@@H](C)O [Compound 258] (Decanoyl-GTAK-{boroAla((+)-pinanediol)}) | 8 (≈ 10.9 µM) | >64 | 
CCCCCCCCCC(=O)NCC(=O)N[C@@H](CCCCN)C(=O)N[C@H](C(=O)N[C@@H](C)C(=O)N[C@@H](CCCCN)C(=O)N[C@@H](C)B1O[C@@H]2C[C@@H]3C[C@@H](C3(C)C)[C@]2(C)O1)[C@@H](C)O [Compound 259] (Decanoyl-GKTAK-{boroAla((+)-pinanediol)}) | 2.4 (≈ 2.78 µM) | 64 (≈ 74.2 µM) | 
CCCCCCCCCCNCCC(=O)N[C@@H](CCCCN)C(=O)N[C@@H](CCC(=O)O)C(=O)N[C@@H](C)C(=O)N[C@@H](CCCCN)C(=O)N[C@@H](C)B1O[C@@H]2C[C@@H]3C[C@@H](C3(C)C)[C@]2(C)O1 [Compound 223] ({Propanoyl(3-decylamino)}-KEAK-{boroAla((+)-pinanediol)}) | 4 (≈ 4.49 µM) | 64 (≈ 71.8 µM) | 
C[C@H](NC(=O)[C@H](CCCCN)NC(=O)[C@H](C)NC(=O)[C@@H](NC(=O)[C@H](CCCCN)NS(=O)(=O)c1ccc(-c2ccccc2)cc1)[C@@H](C)O)B1O[C@@H]2C[C@@H]3C[C@@H](C3(C)C)[C@]2(C)O1 [Compound 133] ({Benzenesulfonyl(4-Ph)}-KTAK-{boroAla((+)-pinanediol)}) | 8 (≈ 9.22 µM) | >64 | 
